Where two headings read alike, the source gives them in different places.
What was measured:
monkey NPR1 = monkey NPR1 (Macaca fascicularis, UniProt A0A7N9DBT9); assay: Cellular cGMP production assay, monkey NPR1 expressing CHO-K1 cells (CisBio HTRF); format: cell-based; conditions: for Monkey NPR1 Amax (% of ANP): maximum cGMP production as percentage of the maximum cGMP produced with ANP
Protocol: Cellular cGMP is a major second messenger that mediates cell activities and is synthesized by activated NPR1 triggered by binding of the natural ligand ANP. […] The assay was performed according to manufacturer's instructions with minor deviations. […] All compound stocks were diluted in PBS+0.1% BSA at 2-fold the final assay concentration. After addition of 10 μL/well of assay buffer (PBS+0.1% BSA+1 mM IBMX) and 10 μL/well of the compounds in different concentrations (12-point dose-response with 3-fold dilutions from a top concentration of 30 μM), the plate was incubated for 30 min at 37° C. to allow for cGMP production. In parallel, a standard curve using a calibrator (contained in the kit) was generated. The cells were lysed and a mix of cGMP-d2 and anti-cGMP-cryptate was added and incubated for 1 h at room temperature. The readout was performed using an Envision plate reader (PerkinElmer) with an excitation wavelength of 317 nm and an emission wavelength of 665 nm. cGMP concentration (Delta F [° %]) was calculated according to the following formulae: […]

human NPR1 = target: T1, human NPR1 (Homo sapiens, UniProt P16066); assay: Cellular cGMP production assay, human NPR1 expressing CHO-K1 cells (CisBio HTRF); format: cell-based; conditions: for AC50: cGMP production, 30 min at 37° C., 12-point dose-response from 30 μM; for Human NPR1 Amax (% of ANP): maximum cGMP production as percentage of the maximum cGMP produced with ANP
T1 construct: host or cells: CHO-K1
T1 sequence (P16066 33-1061): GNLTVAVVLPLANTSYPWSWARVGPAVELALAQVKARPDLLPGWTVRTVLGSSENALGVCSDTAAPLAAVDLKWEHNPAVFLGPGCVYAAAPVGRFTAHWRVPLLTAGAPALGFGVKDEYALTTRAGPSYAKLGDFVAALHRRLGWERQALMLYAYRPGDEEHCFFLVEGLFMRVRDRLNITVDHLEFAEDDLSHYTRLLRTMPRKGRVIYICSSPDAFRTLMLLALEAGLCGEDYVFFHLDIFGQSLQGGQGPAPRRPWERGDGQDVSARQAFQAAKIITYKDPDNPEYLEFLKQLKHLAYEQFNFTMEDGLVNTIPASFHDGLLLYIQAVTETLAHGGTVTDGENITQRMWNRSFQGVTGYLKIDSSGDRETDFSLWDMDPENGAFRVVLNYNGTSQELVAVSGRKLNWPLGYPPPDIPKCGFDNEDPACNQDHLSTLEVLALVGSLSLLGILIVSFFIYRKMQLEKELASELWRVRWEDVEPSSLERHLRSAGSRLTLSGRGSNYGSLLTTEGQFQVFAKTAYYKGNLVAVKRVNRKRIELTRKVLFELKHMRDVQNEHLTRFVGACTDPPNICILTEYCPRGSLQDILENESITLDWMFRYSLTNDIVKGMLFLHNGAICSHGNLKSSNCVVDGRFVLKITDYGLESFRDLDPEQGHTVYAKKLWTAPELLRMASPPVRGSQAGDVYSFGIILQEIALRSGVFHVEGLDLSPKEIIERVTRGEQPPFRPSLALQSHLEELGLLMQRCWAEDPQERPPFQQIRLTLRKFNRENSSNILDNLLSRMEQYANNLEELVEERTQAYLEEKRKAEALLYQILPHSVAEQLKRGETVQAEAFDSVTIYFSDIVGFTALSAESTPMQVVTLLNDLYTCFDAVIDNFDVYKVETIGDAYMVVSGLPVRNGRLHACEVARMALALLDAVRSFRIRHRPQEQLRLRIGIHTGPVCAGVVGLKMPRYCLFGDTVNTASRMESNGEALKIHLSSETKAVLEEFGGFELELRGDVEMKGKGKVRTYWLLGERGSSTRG
Method in brief: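 Step 1: add buffer (PBS, 0.1% BSA, 1 mM IBMX) and compounds, 3-fold series from 30 μM top. Step 2: incubate 30 min, 37 °C. Step 3: lyse; HTRF reagents 1 h at RT.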

[1] = cGMP production, monkey NPR1 CHO-K1 cells, 30 min at 37° C., 12-point dose-response from 30 μM, read-out: Monkey NPR1 AC50

monkey NPR1, sequence (A0A7N9DBT9 entry or part of it): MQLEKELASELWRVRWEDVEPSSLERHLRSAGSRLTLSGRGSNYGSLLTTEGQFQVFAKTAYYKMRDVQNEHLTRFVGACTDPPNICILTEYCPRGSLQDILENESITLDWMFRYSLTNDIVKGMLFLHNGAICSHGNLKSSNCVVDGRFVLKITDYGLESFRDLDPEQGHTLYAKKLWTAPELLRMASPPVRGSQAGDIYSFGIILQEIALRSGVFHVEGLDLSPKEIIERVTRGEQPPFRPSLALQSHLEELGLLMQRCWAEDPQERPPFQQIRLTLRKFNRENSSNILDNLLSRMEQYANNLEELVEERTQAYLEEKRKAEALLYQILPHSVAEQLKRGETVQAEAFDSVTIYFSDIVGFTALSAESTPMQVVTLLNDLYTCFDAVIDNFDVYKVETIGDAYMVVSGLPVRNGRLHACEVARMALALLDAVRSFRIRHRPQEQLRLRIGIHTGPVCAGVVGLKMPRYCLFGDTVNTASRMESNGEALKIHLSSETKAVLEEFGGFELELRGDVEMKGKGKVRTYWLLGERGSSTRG

SMILES	AC50 (monkey NPR1; [1]) [nM]	Monkey NPR1 Amax (% of ANP) (monkey NPR1; monkey NPR1 CHO-K1 cells)	AC50 (human NPR1) [nM]	Human NPR1 Amax (% of ANP) (human NPR1)	AC50 (monkey NPR1) [nM]
CC[C@@H](Nc1nc2c(c(N[C@@H](CN3CCC(OC)CC3)c3cnn(C)c3)n1)C[C@H](c1ccccc1)CC2)[C@H]1CC[C@H](C(=O)O)CC1 [Compound 151, (1R,4r)-4-((R)-1-(((R)-4-(((R)-2-(4-methoxypiperidin-1-yl)-1-(1-methyl-1H-pyrazol-4-yl)ethyl)amino)-6-phenyl-5,6,7,8-tetrahydroquinazolin-2-yl)amino)propyl)cyclohexane-1-carboxylic acid]	1330	96.950 % of ANP	1180	88.350 % of ANP	–
C[C@H]1CCCN(C[C@H](Nc2nc(N(C)[C@H](C3CC3)[C@H]3CC[C@H](C(=O)O)CC3)nc3c2C[C@H](c2cccc(F)c2)CC3)c2cnn(C)c2)C1 [Compound 47, (1R,4r)-4-((R)-cyclopropyl(((R)-6-(3-fluorophenyl)-4-(((R)-1-(1-methyl-1H-pyrazol-4-yl)-2-((S)-3-methylpiperidin-1-yl)ethyl)amino)-5,6,7,8-tetrahydroquinazolin-2-yl)(methyl)amino)methyl)cyclohexane-1-carboxylic acid]	97	96.550 % of ANP	180	101.280 % of ANP	–
CC[C@H]([C@H]1CC[C@H](C(=O)O)CC1)N(C)c1nc2c(c(N[C@@H](CN3C4CCCC3CCC4)c3cnn(CC)c3)n1)C[C@H](c1ccccc1)CC2 [Compound 92, (1R,4r)-4-((R)-1-(((R)-4-(((R)-2-((1S,5S)-9-azabicyclo[3.3.1]nonan-9-yl)-1-(1-ethyl-1H-pyrazol-4-yl)ethyl)amino)-6-phenyl-5,6,7,8-tetrahydroquinazolin-2-yl)(methyl)amino)propyl)cyclohexane-1-carboxylic acid]	–	99.824 % of ANP	317	99.678 % of ANP	249
CC[C@H]([C@H]1CC[C@H](C(=O)O)CC1)N(C)c1nc2c(c(N[C@@H](CN3CCC[C@H](C)C3)c3cnn(C)c3)n1)CN(c1cccc(F)c1)CC2 [Compound 124, (1R,4r)-4-((R)-1-((6-(3-fluorophenyl)-4-(((R)-1-(1-methyl-1H-pyrazol-4-yl)-2-((S)-3-methylpiperidin-1-yl)ethyl)amino)-5,6,7,8-tetrahydropyrido[4,3-d]pyrimidin-2-yl)(methyl)amino)propyl)cyclohexane-1-carboxylic acid]	406	101.428 % of ANP	617	106.069 % of ANP	–
CC[C@@H](Nc1nc2c(c(N[C@@H](CN3CCCCC3)c3cnc(C)s3)n1)C[C@H](c1ccccc1)CC2)[C@H]1CC[C@H](C(=O)O)CC1 [Compound 119, (1R,4r)-4-((R)-1-(((R)-4-(((S)-1-(2-methylthiazol-5-yl)-2-(piperidin-1-yl)ethyl)amino)-6-phenyl-5,6,7,8-tetrahydroquinazolin-2-yl)amino)propyl)cyclohexane-1-carboxylic acid]	378	90.965 % of ANP	542	89.681 % of ANP	–
CC[C@H]([C@H]1CC[C@H](C(=O)O)CC1)N(C)c1nc2c(c(N[C@@H](CN3C4CCCC3CC4)c3cnn(C)c3)n1)C[C@H](c1ccccc1)CC2 [Compound 103, (1R,4r)-4-((1R)-1-(((6R)-4-(((1R)-2-(8-azabicyclo[3.2.1]octan-8-yl)-1-(1-methyl-1H-pyrazol-4-yl)ethyl)amino)-6-phenyl-5,6,7,8-tetrahydroquinazolin-2-yl)(methyl)amino)propyl)cyclohexane-1-carboxylic acid]	–	106.030 % of ANP	393	101.239 % of ANP	350
CC[C@@H](N(C)c1nc2c(c(N[C@H](CN3CCCCCC3)c3cnn(C)c3)n1)C[C@H](c1cccc(F)c1)CC2)C12CC(C(=O)O)(C1)C2 [Compound 4, 3-((R)-1-(((R)-4-(((S)-2-(azepan-1-yl)-1-(1-methyl-1H-pyrazol-4-yl)ethyl)amino)-6-(3-fluorophenyl)-5,6,7,8-tetrahydroquinazolin-2-yl)(methyl)amino)propyl)bicyclo[1.1.1]pentane-1-carboxylic acid]	70	101.838 % of ANP	72	99.041 % of ANP	–
CC[C@H]([C@H]1CC[C@H](C(=O)O)CC1)N(C)c1nc2c(c(N[C@@H](CN3CCC[C@H](C)C3)c3cnn(C)c3)n1)C[C@H](c1ccc(F)cc1)CC2 [Compound 14, (1R,4r)-4-((R)-1-(((R)-6-(4-fluorophenyl)-4-(((R)-1-(1-methyl-1H-pyrazol-4-yl)-2-((S)-3-methylpiperidin-1-yl)ethyl)amino)-5,6,7,8-tetrahydroquinazolin-2-yl)(methyl)amino)propyl)cyclohexane-1-carboxylic acid]	62	88.286 % of ANP	97	94.761 % of ANP	–
CC[C@@H](N(C)c1nc2c(c(N[C@@H](CN3C4CCCC3CCC4)c3cnn(C)c3)n1)C[C@H](c1cccc(F)c1)CC2)C12CC(C(=O)O)(C1)C2 [Compound 6, 3-((R)-1-(((R)-4-(((R)-2-((1S,5S)-9-azabicyclo[3.3.1]nonan-9-yl)-1-(1-methyl-1H-pyrazol-4-yl)ethyl)amino)-6-(3-fluorophenyl)-5,6,7,8-tetrahydroquinazolin-2-yl)(methyl)amino)propyl)bicyclo[1.1.1]pentane-1-carboxylic acid]	–	98.535 % of ANP	77	98.462 % of ANP	58
CC[C@@H](Nc1nc2c(c(N[C@@H](CN3C4CCCC3CCC4)c3cnn(C(C)C)c3)n1)C[C@H](c1ccccc1)CC2)[C@H]1CC[C@H](C(=O)O)CC1 [Compound 132, (1R,4r)-4-((R)-1-(((R)-4-(((R)-2-((1S,5S)-9-azabicyclo[3.3.1]nonan-9-yl)-1-(1-isopropyl-1H-pyrazol-4-yl)ethyl)amino)-6-phenyl-5,6,7,8-tetrahydroquinazolin-2-yl)amino)propyl)cyclohexane-1-carboxylic acid]	–	103.231 % of ANP	757	97.440 % of ANP	620
CC[C@@H](N(C)c1nc2c(c(N[C@@H](CN3CCC[C@H](C)C3)c3cnn(C)c3)n1)C[C@H](c1cccc(F)c1)CC2)C12CC(C(=O)O)(C1)C2 [Compound 9, 3-((R)-1-(((R)-6-(3-fluorophenyl)-4-(((R)-1-(1-methyl-1H-pyrazol-4-yl)-2-((S)-3-methylpiperidin-1-yl)ethyl)amino)-5,6,7,8-tetrahydroquinazolin-2-yl)(methyl)amino)propyl)bicyclo[1.1.1]pentane-1-carboxylic acid]	45	95.667 % of ANP	88	95.056 % of ANP	–
